pKi: −log10 of the molar value.
How the values were obtained:
[1] = test system: ozone-induced airway hyperreactivity mediated by the vagus nerves; test: vagally induced bronchoconstriction (airway hyperreactivity); type: in vivo, guinea pigs; settings: ozone-exposed, 30 mg/kg ip 1 h before ozone, one day post-exposure, vagal stimulation 1–25 Hz
Protocol: Guinea pigs were exposed to 2 ppm ozone or filtered air for 4 hours as described previously. Physiological measurements, airway inflammation, and histological measurements were made one day after a single ozone exposure.
Animals were given 30 mg/kg intraperitoneally of the dual p38 and JNK MAPK inhibitors V-05-013, V-05-014, or V-05-015 (Vertex Pharmaceuticals, Cambridge, MA) one hour before ozone exposure (Figure 1). These compounds were chosen because of their overall kinase selectivity profile. […] Inhibitors were dissolved in 25% DMSO in phosphate buffered saline (PBS). Air exposed control animals were given 25% DMSO in PBS one hour before ozone exposure.
Physiological measurements were made as previously described. The jugular veins were cannulated for intravenous administration of drugs and the right carotid artery was cannulated to measure heart rate and blood pressure. Both vagus nerves were cut and distal ends placed on platinum electrodes submerged in liquid paraffin. Animals were tracheostomized, ventilated (1 ml/100 g body weight, 100 breaths per minute) and paralyzed with a constant infusion of succinylcholine (10 µg/kg/min iv, Sigma-Aldrich). Pulmonary inflation pressure was measured at the trachea and bronchoconstriction was measured as the increase in pressure over basal inflation pressure produced by the ventilator.
Electrical stimulation of both vagus nerves (10V, 0.2 ms pulse width, 1–25 Hz, 5 sec duration at 1 minute intervals) produced frequency dependent bronchoconstriction and bradycardia due to release of acetylcholine onto muscarinic receptors.

TIE2 = TIE2 (Homo sapiens, UniProt Q02763); test: spectrophotometric coupled-enzyme kinase inhibition assay; type: biochemical; settings: read-out: Ki or IC50 TIE2
Outline: (§1)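 PK/LDH-coupled NADH depletion, A340 over 10 min at 30°C. Kinase 10–40 nM, EGFR peptide 200 µM–500 µM substrate, ATP = Km, 0.1 M HEPES pH 7.5, 10 mM MgCl2, 2 mM DTT; 10 min inhibitor preincubation. IC50 or Ki (competitive model).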

FLT3 = FLT3 (Homo sapiens, UniProt P36888); test: as above; type: biochemical; settings: read-out: Ki or IC50 FLT3
Outline: as §1

EphA = test: as above; type: biochemical; settings: read-out: Ki or IC50 EphA
Outline: as §1

ITK = ITK (Homo sapiens, UniProt Q08881); test: as above; type: biochemical; settings: read-out: Ki or IC50 ITK
Outline: as §1

JAK2 = JAK2 (Homo sapiens, UniProt O60674); test: as above; type: biochemical; settings: read-out: Ki or IC50 JAK2
Outline: as §1

PDK1 = PDK1 (Homo sapiens, UniProt O15530); test: as above; type: biochemical; settings: read-out: Ki or IC50 PDK1
Outline: as §1

LCK = LCK (Homo sapiens, UniProt P06239); test: as above; type: biochemical; settings: read-out: Ki or IC50 LCK
Outline: as §1

FAK = FAK (Homo sapiens, UniProt Q05397); test: as above; type: biochemical; settings: read-out: Ki or IC50 FAK
Outline: as §1

COT = COT (Homo sapiens, UniProt P41279); test: as above; type: biochemical; settings: read-out: Ki or IC50 COT
Outline: as §1

Sequence of PDK1 (O15530 whole entry): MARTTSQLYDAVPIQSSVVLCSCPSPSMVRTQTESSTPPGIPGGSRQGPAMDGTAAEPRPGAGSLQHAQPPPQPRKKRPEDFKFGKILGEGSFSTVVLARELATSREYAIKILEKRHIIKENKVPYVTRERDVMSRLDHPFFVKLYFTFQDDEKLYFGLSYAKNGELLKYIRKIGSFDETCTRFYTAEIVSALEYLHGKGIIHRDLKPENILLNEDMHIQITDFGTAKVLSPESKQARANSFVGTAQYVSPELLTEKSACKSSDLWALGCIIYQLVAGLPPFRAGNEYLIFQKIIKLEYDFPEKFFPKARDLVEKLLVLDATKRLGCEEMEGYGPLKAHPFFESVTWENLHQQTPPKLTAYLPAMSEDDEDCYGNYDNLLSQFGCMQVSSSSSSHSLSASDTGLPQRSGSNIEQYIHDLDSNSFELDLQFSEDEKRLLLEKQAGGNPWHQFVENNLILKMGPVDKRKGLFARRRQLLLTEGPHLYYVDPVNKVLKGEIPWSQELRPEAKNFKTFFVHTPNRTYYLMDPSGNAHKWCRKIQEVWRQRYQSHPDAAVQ
Sequence of FLT3 (P36888 27-993, species assumed): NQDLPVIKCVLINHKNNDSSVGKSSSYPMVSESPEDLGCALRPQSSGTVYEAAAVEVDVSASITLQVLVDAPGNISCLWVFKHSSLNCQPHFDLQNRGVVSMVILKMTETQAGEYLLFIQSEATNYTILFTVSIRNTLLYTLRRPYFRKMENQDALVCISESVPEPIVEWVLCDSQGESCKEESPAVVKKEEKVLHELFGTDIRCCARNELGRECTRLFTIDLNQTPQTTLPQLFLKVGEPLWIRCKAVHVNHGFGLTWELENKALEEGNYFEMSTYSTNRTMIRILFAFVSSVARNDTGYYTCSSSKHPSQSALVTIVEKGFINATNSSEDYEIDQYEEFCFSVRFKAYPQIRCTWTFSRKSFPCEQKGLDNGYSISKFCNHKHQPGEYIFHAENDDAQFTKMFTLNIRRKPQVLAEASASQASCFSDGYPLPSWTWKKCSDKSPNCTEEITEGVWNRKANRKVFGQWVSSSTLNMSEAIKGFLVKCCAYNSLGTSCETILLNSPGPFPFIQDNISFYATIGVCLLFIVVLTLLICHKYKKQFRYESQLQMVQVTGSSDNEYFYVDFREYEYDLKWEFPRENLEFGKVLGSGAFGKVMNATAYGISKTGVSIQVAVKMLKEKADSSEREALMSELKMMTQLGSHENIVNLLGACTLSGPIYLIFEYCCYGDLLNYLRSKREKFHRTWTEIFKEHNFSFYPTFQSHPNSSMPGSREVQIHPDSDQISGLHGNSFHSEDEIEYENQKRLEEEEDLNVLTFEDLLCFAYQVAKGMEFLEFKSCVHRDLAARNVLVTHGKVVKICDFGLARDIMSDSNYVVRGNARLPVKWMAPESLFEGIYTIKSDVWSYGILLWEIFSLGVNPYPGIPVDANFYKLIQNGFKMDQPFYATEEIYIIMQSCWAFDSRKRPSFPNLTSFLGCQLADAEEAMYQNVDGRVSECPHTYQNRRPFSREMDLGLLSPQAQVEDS
Sequence of TIE2 (Q02763 23-1124, species assumed): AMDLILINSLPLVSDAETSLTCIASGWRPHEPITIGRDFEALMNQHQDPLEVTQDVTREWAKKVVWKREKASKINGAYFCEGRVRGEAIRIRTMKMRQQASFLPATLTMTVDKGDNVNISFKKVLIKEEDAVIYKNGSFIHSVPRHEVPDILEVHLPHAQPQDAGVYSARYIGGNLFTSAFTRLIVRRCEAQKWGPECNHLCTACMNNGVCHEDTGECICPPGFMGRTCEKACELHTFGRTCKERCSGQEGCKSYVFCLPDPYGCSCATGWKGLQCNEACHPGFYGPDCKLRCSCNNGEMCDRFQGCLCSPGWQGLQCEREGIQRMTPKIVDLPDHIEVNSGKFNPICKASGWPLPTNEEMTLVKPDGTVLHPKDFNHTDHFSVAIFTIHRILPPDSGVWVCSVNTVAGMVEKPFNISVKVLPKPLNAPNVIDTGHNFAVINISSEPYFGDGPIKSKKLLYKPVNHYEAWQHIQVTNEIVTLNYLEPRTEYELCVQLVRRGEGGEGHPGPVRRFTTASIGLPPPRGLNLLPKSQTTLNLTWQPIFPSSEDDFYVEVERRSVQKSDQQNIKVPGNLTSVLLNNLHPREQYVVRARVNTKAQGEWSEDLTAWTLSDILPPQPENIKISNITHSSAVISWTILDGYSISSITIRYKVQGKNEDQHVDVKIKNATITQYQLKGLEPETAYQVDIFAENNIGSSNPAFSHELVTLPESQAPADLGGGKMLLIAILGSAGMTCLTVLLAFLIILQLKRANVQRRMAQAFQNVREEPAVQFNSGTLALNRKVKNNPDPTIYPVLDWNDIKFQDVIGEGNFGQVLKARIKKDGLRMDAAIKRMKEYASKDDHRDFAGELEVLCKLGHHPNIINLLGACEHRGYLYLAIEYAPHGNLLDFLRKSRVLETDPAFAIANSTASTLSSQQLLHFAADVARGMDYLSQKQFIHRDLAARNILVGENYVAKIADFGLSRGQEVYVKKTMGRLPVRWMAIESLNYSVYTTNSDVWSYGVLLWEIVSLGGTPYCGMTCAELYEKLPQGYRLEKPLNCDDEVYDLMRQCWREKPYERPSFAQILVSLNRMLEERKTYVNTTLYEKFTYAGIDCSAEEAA
Sequence of JAK2 (O60674 whole entry, species assumed): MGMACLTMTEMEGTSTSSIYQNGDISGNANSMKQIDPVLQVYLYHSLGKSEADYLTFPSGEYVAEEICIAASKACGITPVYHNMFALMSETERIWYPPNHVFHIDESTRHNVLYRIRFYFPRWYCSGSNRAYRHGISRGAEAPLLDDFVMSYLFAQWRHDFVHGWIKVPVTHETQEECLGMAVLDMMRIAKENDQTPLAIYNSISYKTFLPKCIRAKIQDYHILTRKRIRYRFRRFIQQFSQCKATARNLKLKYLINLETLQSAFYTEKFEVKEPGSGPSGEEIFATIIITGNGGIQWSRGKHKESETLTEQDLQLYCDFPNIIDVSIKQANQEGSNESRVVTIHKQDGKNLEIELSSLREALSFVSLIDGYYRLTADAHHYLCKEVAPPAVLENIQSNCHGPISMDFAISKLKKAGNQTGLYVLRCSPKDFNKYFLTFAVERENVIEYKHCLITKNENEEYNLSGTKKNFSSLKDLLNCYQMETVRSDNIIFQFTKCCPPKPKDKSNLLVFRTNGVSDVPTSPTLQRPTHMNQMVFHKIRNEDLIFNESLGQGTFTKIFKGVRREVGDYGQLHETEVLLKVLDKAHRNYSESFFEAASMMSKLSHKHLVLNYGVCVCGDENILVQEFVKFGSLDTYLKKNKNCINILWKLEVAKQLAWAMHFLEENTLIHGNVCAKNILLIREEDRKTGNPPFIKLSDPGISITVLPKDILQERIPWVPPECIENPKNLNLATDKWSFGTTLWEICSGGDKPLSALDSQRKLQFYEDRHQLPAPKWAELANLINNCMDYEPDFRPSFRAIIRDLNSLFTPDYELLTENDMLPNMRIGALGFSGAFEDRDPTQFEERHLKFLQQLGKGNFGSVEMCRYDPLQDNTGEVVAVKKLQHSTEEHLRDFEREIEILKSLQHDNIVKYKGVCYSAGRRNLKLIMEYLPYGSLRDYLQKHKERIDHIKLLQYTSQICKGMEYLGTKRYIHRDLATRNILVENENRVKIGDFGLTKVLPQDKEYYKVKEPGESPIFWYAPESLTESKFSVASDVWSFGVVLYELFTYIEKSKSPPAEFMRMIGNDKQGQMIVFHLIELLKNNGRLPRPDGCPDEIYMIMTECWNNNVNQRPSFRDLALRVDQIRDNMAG
Sequence of LCK (P06239 whole entry, species assumed): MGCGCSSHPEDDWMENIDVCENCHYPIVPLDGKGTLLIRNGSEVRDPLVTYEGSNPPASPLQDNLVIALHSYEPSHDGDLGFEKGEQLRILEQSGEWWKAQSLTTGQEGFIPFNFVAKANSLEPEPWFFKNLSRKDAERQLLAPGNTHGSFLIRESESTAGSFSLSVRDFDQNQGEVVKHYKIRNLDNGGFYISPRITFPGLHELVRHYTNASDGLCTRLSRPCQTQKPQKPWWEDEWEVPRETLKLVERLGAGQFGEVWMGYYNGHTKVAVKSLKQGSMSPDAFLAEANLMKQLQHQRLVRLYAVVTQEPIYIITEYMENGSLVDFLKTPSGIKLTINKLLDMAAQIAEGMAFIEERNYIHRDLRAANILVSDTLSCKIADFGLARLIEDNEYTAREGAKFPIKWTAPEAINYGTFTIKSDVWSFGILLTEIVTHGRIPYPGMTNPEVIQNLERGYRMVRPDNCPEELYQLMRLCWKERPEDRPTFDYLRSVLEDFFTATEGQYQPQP
Sequence of ITK (Q08881 whole entry, species assumed): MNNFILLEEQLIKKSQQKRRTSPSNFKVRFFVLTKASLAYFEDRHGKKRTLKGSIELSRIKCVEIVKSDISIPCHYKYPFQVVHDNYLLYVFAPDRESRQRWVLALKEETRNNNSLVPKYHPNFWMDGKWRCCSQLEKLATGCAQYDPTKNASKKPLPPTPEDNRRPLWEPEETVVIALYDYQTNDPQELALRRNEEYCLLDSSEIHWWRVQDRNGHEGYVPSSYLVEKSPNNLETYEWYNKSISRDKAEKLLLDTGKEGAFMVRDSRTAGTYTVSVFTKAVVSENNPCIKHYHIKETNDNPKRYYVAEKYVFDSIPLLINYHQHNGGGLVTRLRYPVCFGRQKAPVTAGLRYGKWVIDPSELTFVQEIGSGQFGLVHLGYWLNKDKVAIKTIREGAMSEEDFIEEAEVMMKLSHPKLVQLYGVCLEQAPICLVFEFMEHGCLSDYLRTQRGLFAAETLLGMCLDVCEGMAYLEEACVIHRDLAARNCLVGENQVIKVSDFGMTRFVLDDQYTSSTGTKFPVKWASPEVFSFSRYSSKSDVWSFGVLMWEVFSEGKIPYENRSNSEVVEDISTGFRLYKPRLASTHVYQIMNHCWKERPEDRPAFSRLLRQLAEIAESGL

Structure (SMILES)	effect on ozone-induced potentiation of vagally induced bronchoconstriction [1]	pKi (TIE2)	pKi (FLT3)	pKi (EphA)	pKi (ITK)	pKi (JAK2)	pKi (PDK1)	pKi (LCK)	pKi (FAK)	pKi (COT)
OC1CCN(Cc2onc(-c3ccc(F)cc3)c2-c2ccnc(NC3CCCCC3)n2)CC1 [V-05-013]	completely prevented ozone-induced airway hyperreactivity	< 6.00	< 6.00	< 6.00	< 6.00	< 6.00				
OC[C@@H]1CCCN1Cc1onc(-c2ccc(F)cc2)c1-c1ccnc(NC2CCCCC2)n1 [V-05-014]	completely prevented ozone-induced airway hyperreactivity	< 6.00		< 6.00			< 6.00	< 6.00	< 6.00	< 6.00
Fc1ccc(-c2noc(CN3CCCCC3)c2-c2ccnc(NC3CCCCC3)n2)cc1 [V-05-015]	completely prevented ozone-induced airway hyperreactivity		< 6.00			< 6.00	< 6.00	< 6.00		

— paper PMC3776780, “Dual p38/JNK Mitogen Activated Protein Kinase Inhibitors Prevent Ozone-Induced Airway Hyperreactivity in Guinea Pigs” (PLoS ONE, 2013)
